Assay results from PubChem BioAssay (NCI).
Values joined by “and” are separate entries in the source; they are usually repeats but may differ in a detail not shown here. Equal values may be shown once.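 Following 48 hours of exposure in 96-well plates, responses at five concentrations were used to interpolate endpoints linearly. At the GI50, growth is halved. TGI marks complete inhibition of growth.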

Columns and labels:
Experiment in all cases: NCI tumour cell line growth inhibition, 48 h
[1] = system: ACHN renal
[2] = system: HL-60(TB) leukemia
[3] = system: HS 578T breast
[4] = system: HT29 colon
[5] = system: KM20L2 colon
[6] = system: LOX IMVI melanoma
[7] = system: MDA-MB-435
[8] = system: OVCAR-3 ovarian
[9] = system: SF-295 CNS
[10] = system: SNB-78 CNS
[11] = system: MDA-N

| SMILES | TGI [1] [µM] | TGI [2] | GI50 [3] [µM] | TGI [3] [µM] | TGI [4] | TGI [5] | TGI [6] | GI50 [7] [µM] | TGI [7] [µM] | TGI [8] | TGI [9] | TGI [10] [µM] | TGI [11] [µM] | GI50 [1] | GI50 [6] |
| --- | --- | --- | --- | --- | --- | --- | --- | --- | --- | --- | --- | --- | --- | --- | --- |
| C/C(=N\NC(N)=O)C(CN1CCCCC1)C(c1ccccc1)c1c(O)c2ccccc2oc1=O (configuration not stated) | > 100 | > 72.9 µM | 79.4 | > 100 | > 100 µM | > 100 µM | > 100 µM | > 100 | > 100 | > 100 µM | > 100 µM | > 100 | – | – | – |
| COc1cccc(NC(=O)CSc2nnc(-c3ccc(N=Cc4ccc(Cl)cc4)cc3)o2)c1 | 30.3 | 87.8 µM | – | – | 29.8 µM | 30.6 µM | 37.7 µM | – | – | – | 43.5 µM | > 100 | – | – | – |
| CC1=CC(O)C(O)C2(C)C1CC1OC(=O)C(O)C3C(C)C(O)C4(O)OCC13C42 (configuration not stated) | – | 189 µM | – | – | 159 µM | 233 µM | 156 µM | – | – | 121 µM | 364 µM | 154 | – | – | – |
| NC(Cc1cc(I)c(O)c(I)c1)C(=O)O (configuration not stated) | – | > 500 µM | – | – | > 393 µM | > 500 µM | > 361 µM | – | – | > 500 µM | > 500 µM | > 500 | – | – | – |
| O=c1[nH]c(=O)n(C2OC(COP(=O)(O)OP(=O)(O)O)C(O)C2O)cc1F (configuration not stated) | > 44.7 | > 50 µM | – | – | > 50 µM | > 50 µM | 23 µM | – | – | > 50 µM | > 50 µM | > 50 | – | – | – |
| CCOC(=O)C(C)(C)Oc1ccc2c(=O)cc(-c3ccccc3)oc2c1 | > 100 | 32.8 µM | – | – | – | 52.1 µM | 37.1 µM | – | – | 39 µM | 75 µM | 71.8 | – | – | – |
| CC1(O)C=CC2CCC1C2O (configuration not stated) | > 100 | > 100 µM | – | – | > 100 µM | > 100 µM | 35.9 µM | – | – | > 100 µM | > 100 µM | > 100 | – | – | – |
| Cc1ccc(C(=O)N(C(C)C)C(C)C)cc1N=NN(C)C | > 100 | > 100 µM | – | > 100 | > 100 µM | > 100 µM | > 31.6 µM | – | > 100 | > 100 µM | > 100 µM | > 100 | > 100 | – | – |
| OC1CCCC1C(O)(C(F)(F)F)C(F)(F)F (configuration not stated) | > 100 | > 100 µM | – | > 100 | > 100 µM | – | > 100 µM | – | > 100 | > 100 µM | > 100 µM | – | > 100 | – | – |
| O=C(C1=C(C(=O)c2ccccc2)SC2(S1)C(C(=O)c1ccccc1)=C(C(=O)c1ccccc1)Sc1c2ssc1=O)c1ccccc1 | > 100 | 69.8 µM | – | > 100 | > 100 µM | – | > 100 µM | – | > 100 | > 100 µM | > 100 µM | – | > 100 | – | – |
| CCC1(CC)C(=O)CC[C@@]2(C)C1=CC[C@H]1[C@@H]3CC[C@H](O)[C@@]3(C)CC[C@@H]12 | > 100 | 46.4 µM | – | 72.6 | 28.5 µM | – | 37.8 µM | – | > 100 | 45 µM | 62.1 µM | – | > 100 | – | – |
| Cc1ccc(S(=O)(=O)n2cncc2CO)cc1 | > 100 | > 100 µM | – | > 100 | > 100 µM | – | > 100 µM | – | > 100 | > 100 µM | > 100 µM | – | > 100 | – | – |
| CN1CCn2c(Br)ccc2C1=O | > 100 | > 100 µM | – | – | > 100 µM | > 100 µM | > 100 µM | – | – | > 100 µM | > 100 µM | > 100 | – | – | – |
| CCCCCc1cc2c(cc1O)CC[C@@H]1[C@@H]2CC[C@]2(C)[C@@H](O)CC[C@@H]12 | 27.5 | 41.4 µM | – | 46.5 | 41.2 µM | – | 39.2 µM | – | 30.6 | 29.4 µM | 28.2 µM | – | 35.1 | – | – |
| Cc1csc2c1C(=O)c1ccsc1C2=O | 10.7 | > 30.1 µM | – | 4.37 | 7.33 µM | 17.6 µM | 3.37 µM | – | 0.447 | 5.44 µM | 2.99 µM | 16.5 | 0.889 | – | – |
| COc1cc(C2C3=C(CCC3=O)Oc3cc4c(cc32)OCO4)cc(OC)c1OC (configuration not stated) | 62.3 | 0.596 µM | – | – | > 100 µM | 0.664 µM | > 100 µM | – | – | 0.381 µM | 0.532 µM | > 100 | – | – | – |
| CC1(C)O[C@@H](CO)[C@H]([C@@]23OC[C@H]4OC(C)(C)OC4[C@@H]2OC(C)(C)O3)O1 (some centres not stated) | > 100 | > 100 µM | – | > 100 | > 100 µM | – | > 100 µM | – | > 100 | > 100 µM | > 100 µM | – | > 100 | – | – |
| CN(C(=O)C1(C(=O)C=[N+]=[N-])CC1)c1ccccc1 | > 100 | > 100 µM | – | > 100 | > 100 µM | – | > 100 µM | – | > 100 | > 100 µM | > 100 µM | – | > 100 | – | – |
| N#CC1=C(N)C(C#N)(C#N)C(c2ccc(F)cc2)C=C1C1CC1 (configuration not stated) | 25.6 | 34.8 µM | – | > 100 | 22.8 µM | – | 14.5 µM | – | 12.4 | 18.1 µM | 25.8 µM | – | 6.67 | – | – |
| CCOC(=O)c1ccc(C(=O)C(C(C)=O)C(=O)OC(C)(C)C)n1C (configuration not stated) | > 100 | > 100 µM | – | > 100 | > 100 µM | – | > 100 µM | – | > 100 | > 100 µM | > 100 µM | – | > 100 | – | – |
| CCOc1ccc2[nH]c3c(C)c4cc[n+](C)cc4c(C)c3c2c1 | > 100 | 29.9 µM and > 52.2 µM | – | – | 28.4 µM and 32.7 µM | 47.8 µM and > 96.8 µM | 19.4 µM and > 67.1 µM | – | – | 22.5 µM and 51.7 µM | 0.672 µM and 1.55 µM | > 100 | – | 6.04 µM and 17.5 µM | 2.99 µM and 11.4 µM |
| OCC1OC(n2cnc3cccnc32)CC1O (configuration not stated) | > 100 | > 100 µM | – | > 100 | > 100 µM | – | > 100 µM | – | > 100 | > 100 µM | > 100 µM | – | > 100 | – | – |
| CC(C)(C)N=C1CC(C)(C)c2ccccc2C(=Nc2ccccc2)S1 | > 100 | 36 µM | – | – | > 100 µM | > 100 µM | 40.1 µM | – | – | > 100 µM | > 100 µM | > 100 | – | – | – |
